Measured values as given in ChEMBL document CHEMBL1159199, “A new antiplatelet diarylheptanoid from Alpinia blepharocalyx” (1998).

How the values were obtained:
Format in all cases: functional
[1] = Antiplatelet activity in human whole blood assessed as inhibition of collagen-induced platelet aggregation at 100 ug/mL relative to control
[2] = Antiplatelet activity in human whole blood assessed as inhibition of ADP-induced platelet aggregation at 100 ug/mL relative to control
[3] = Antiplatelet activity in human whole blood assessed as inhibition of arachidonic acid-induced platelet aggregation at 100 ug/mL relative to control
[4] = Antiplatelet activity in human whole blood assessed as inhibition of ristocetin-induced platelet aggregation at 100 ug/mL relative to control

Row | Compound | inhibition at 100 µg/mL [1] [%] | inhibition at 100 µg/mL [2] [%] | inhibition at 100 µg/mL [3] [%] | inhibition at 100 µg/mL [4] [%]
1 | COc1cc(/C=C/c2ccccc2)oc(=O)c1 [DESMETHOXYYANGONIN] | 48.9 | 43.8 | 100 | 33.3
2 | COc1cc(O)cc(O)c1C(=O)/C=C/c1ccccc1 [CARDAMOMIN] | 56 | 62.9 | 100 | 0
3 | O=C(/C=C(O)/C=C/c1ccc(O)cc1)CCc1ccc(O)cc1 | 77.3 | 100 | 100 | 62.8
4 | COc1cc(O)cc(O)c1C(=O)/C=C/c1ccc(O)cc1 [HELICHRYSETIN] | 32.3 | 48.9 | 100 | 63.8
5 | O=Cc1ccc(O)cc1 [4-HYDROXYBENZALDEHYDE] | 23.6 | 39.8 | 5.4 | 11
6 | O=C(/C=C/c1ccc(O)cc1)CC(=O)/C=C/c1ccc(O)cc1 [BISDEMETHOXYCURCUMIN] | 76.3 | 35.4 | 46.8 | 38.3
7 | COc1cc(O)cc2c1C(=O)CC(c1ccc(O)cc1)O2 (stereo unspecified) | 57.7 | 14.5 | 26.2 | 37.2
8 | COc1cc(/C=C/c2ccc(O)cc2)oc(=O)c1 | 86.9 | 100 | 100 | 100
9 | COc1ccc2c(c1)c(CC(=O)O)c(C)n2C(=O)c1ccc(Cl)cc1 [INDOMETHACIN] | 71.1 | 36.7 | 100 | 52.1
